{"source": "patent US20190202719A1", "about": "“METHOD FOR CONTROLLING MOLLUSK POPULATIONS” (priority 2016, published 2019)", "key": {"[1]": {"system": "adult dreissenid mussels", "conditions": "pH about 4, warm water, after 72 hours"}, "[2]": {"system": "adult dreissenid mussels", "assay": "Effective pH range determination, adult mussel mortality in pH-adjusted raw lake water", "description": "To find an optimal pH range at which lactic acid effectively killed adult dreissenid mussels, raw lake water was placed in 4 L water containers and aerated. The pH was adjusted in three containers to about 2.8, 4, and 6, respectively, using lactic acid. The initial water parameters (temperature 20° C., pH 7.6, dissolved oxygen (DO) 7.73, Alkalinity 90 mg/l) were monitored. A fourth container, with no pH adjustment was used for control. Twenty adult mussels of various sizes were placed in each of the three containers. […] Mortality was defined as a gaping shell with the adult mussel not responding to gentle prodding of the flesh.\nThe experiment was repeated with the pH adjusted to about 5."}, "[3]": {"system": "veligers of quagga mussels", "assay": "Efficiency in killing mollusk veligers, beaker exposure", "conditions": "approximately 20° C.", "description": "Further testing was conducted specifically on veligers of quagga mussels collected from Lake Mead and utilizing citric acid and L-lactic acid. Trials were conducted using 2 replicate beakers per test interval at approximately 20° C. Test beakers (100 mL) were seeded with at least 200 veligers per replicate in 10 mL of veliger concentrate and filtered lake water and then dosed with 90 mL of prepared acid concentrate for each of the tested concentrations of lactic acid or citric acid. Stock acid solutions were measured by weight and added to filtered lake water to make the total volume needed. Controls were run concurrently with treatments and used filtered lake water instead of acid to add into the beaker. Exposure times included 1, 5, and 15 minutes, and 1 and 24 hours to assess mortality for the different concentrations of acids.\nThe exposure times were 5 minutes, 15 minutes, one hour, and 24 hours.\nIn the second test, the final concentrations of citric acid and L-lactic acid were 1% and 2% by weight for each acid. The exposure times were one minute and 5 minutes."}}, "note": "Like-named read-outs stand apart in the source and are kept apart here.", "data": [{"compound": "CC(O)C(=O)O", "note": "(stereo not drawn) [lactic acid]", "values": [{"measurement": "mortality", "setting": "[1]", "value": "complete mortality"}, {"measurement": "mortality", "setting": "[2]; in vivo, pH 4", "value": 100, "unit": "%"}, {"measurement": "shell condition", "setting": "[2]; pH 2.8, after 48 hours", "value": "shells were disintegrating"}, {"measurement": "mortality", "setting": "[2]; pH of 6, after 48 hours", "value": "no mortality"}]}, {"compound": "C[C@H](O)C(=O)O", "note": "[L-lactic acid]", "values": [{"measurement": "veliger mortality", "setting": "[3]; 0.6% by weight, one hour exposure", "value": 99, "unit": "%"}, {"measurement": "veliger mortality", "setting": "[3]; 2% by weight, five minute exposure", "value": 86, "unit": "%"}]}]}
